In patent publication US8592426B2, “Aryl-benzocycloalkyl amide derivatives” (Hoffmann—La Roche Inc., priority 2011, dated 2013) one finds Ki and IC50 data, which are given here for 4 compounds.

The target of test [1] is T1, Bradykinin-1 receptor (Homo sapiens (Human), UniProt P46663). The experiment in a line: Receptor binding assay (B1R Binding Assay), [3H]-Kallidin (Des Arg10, Leu9) displacement. Particulars: membranes from CHO-K1 cells overexpressing Bradykinin-1 receptor; 6 nM radioligand. On the procedure: Binding assays were done with membranes from CHO-K1 cells overexpressing Bradykinin-1 receptor.
To determine non-specific binding 10 μM Lys-(Des-Arg^9)-Bradykinin (Bachem) was added. Membranes were harvested through GF/B (glass fiber filter; PerkinElmer) plates, equilibrated with 0.5% polyethylenimine, air dried at 50° C. for 2 h. Radioactivity was determined by counting in a topcounter (NXT Packard).

Test [2] concerns the target T1, Bradykinin-1 receptor. The test can be described thus: Calcium mobilization assay (FLIPR, Fluo-4) in GeneBLAzer Bradykinin (B1)-NFAT-bla CHO-K1 cells. The class given is cell-based. As to conditions: antagonist activity; CHO-K1 cells stably overexpressing the human bradykinin 1 receptor; read-out: Ca mobilization Assay IC50.

T1 sequence (P46663 whole entry): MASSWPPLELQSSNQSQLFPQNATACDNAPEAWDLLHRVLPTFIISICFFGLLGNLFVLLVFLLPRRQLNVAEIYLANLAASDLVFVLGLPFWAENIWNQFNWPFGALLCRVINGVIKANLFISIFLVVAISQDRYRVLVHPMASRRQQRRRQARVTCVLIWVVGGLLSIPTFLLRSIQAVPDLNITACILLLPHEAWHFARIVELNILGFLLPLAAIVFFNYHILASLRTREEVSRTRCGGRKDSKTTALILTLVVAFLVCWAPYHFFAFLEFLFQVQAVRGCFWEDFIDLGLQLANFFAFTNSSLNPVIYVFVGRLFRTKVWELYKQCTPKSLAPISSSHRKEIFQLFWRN

What is called Ki is the equilibrium dissociation constant of an inhibitor or competing ligand from its target. Read a low Ki as a stronger hold on the target. What is called IC50 is the concentration that gives 50% inhibition. In turn, `Cc1nc(-c2c(F)cc(Cl)cc2-c2ccc3c(c2)CC[C@@H]3NC(=O)C2(NC(=O)c3cncnc3)COC2)no1` [Example 50, Pyrimidine-5-carboxylic acid (3-{(S)-5-[5-chloro-3-fluoro-2-(5-methyl-[1,2,4]oxadiazol-3-yl)-phenyl]-indan-1-ylcarbamoyl}-oxetan-3-yl)-amide] had a Ki at Bradykinin-1 receptor [1] of 4.8 nM. Moreover, the half-inhibitory concentration (IC50) at Bradykinin-1 receptor [2] was found to be 0.4 nM.
On the same counts, the results for `O=C(NC1(C(=O)NC2CCCc3cc(-c4cc(Cl)cc(Cl)c4OCC(F)F)ccc32)CC1)C(F)(F)F` (racemic) [Example 9, 1-(2,2,2-Trifluoro-acetylamino)-cyclopropanecarboxylic acid{(rac)-6-[3,5-dichloro-2-(2,2-difluoro-ethoxy)-phenyl]-1,2,3,4-tetrahydro-naphthalen-1-yl}-amide] are 236 nM and 82.6 nM.
On the same counts, the results for `COc1cc(C(=O)NC2(C(=O)N[C@H]3CCc4cc(-c5cc(Cl)cc(F)c5-c5noc(C)n5)ccc43)COC2)on1` [Example 53, 3-Methoxy-isoxazole-5-carboxylic acid (3-{(S)-5-[5-chloro-3-fluoro-2-(5-methyl-[1,2,4]oxadiazol-3-yl)-phenyl]-indan-1-ylcarbamoyl}-oxetan-3-yl)-amide] are 3.6 nM and 0.4 nM.
On the same counts, the results for `COc1cc(C(=O)NC2(C(=O)NC3CCc4cc(-c5cc(Cl)cc(F)c5-c5nnn(C)n5)cnc43)CC2)on1` (racemic) [Example 59, 3-Methoxy-isoxazole-5-carboxylic acid(1-{(rac)-3-[5-chloro-3-fluoro-2-(2-methyl-2H-tetrazol-5-yl)-phenyl]-6,7-dihydro-5H-[1]pyrindin-7-ylcarbamoyl}-cyclopropyl)-amide] are 3.5 nM and 0.3 nM.
